Reference: paper PMC9555310, “Novel inhibitors and activity-based probes targeting serine proteases” (Frontiers in Chemistry, 2022)

Target: T1, trypsin (Sus scrofa, UniProt P00761)
T1 construct: purchased Sigma-Aldrich; host or cells: porcine pancreas
Assay: Irreversible inhibition kinetics of trypsin (fluorogenic substrate progress curves)
Assay type: biochemical, porcine
Experimental: A range of inhibitor concentrations were prepared from a 10 mM stock solution of the test compounds (NAP533, NAP559, NAP800, NAP830, NAP849, and NAP962) in N, N-dimethylformamide (DMF). Recombinant protease activities were assayed using the cognate fluorogenic substrates as follows: trypsin (Z-Gly-Gly-Arg-NHMec), thrombin (Boc-Val-Pro-Arg-NHMec), plasmin (Boc-Val-Leu-Lys-NHMec), human neutrophil elastase (MeO-Succinyl-Ala-Ala-Pro-Val-NHMec), and chymotrypsin (Succinyl-Ala-Ala-Pro-Phe-NHMec). Each substrate was used at a final concentration of 50 μM, in the appropriate buffer for each protease. All inhibition assays were performed in microtiter plates maintained at 37°C in a final volume of 100 μL. The reaction was initiated by the addition of each protease (approx. 0.01 μg/well) and the rate of substrate hydrolysis was recorded continuously at 37°C, over a 60 min period, by measuring the rate of increase in fluorescence (at λex 360 nm, λem 480 nm) using a FLUOstar Optima microplate reader (BMG Labtech).
The resultant inhibition progress curves obtained for each inhibitor were analyzed by the kinetic models developed by [Tian and Tsou (1982)] and [Walker and Elmore (1984)], for irreversible inhibitors, with curve fitting being achieved using GraFit (Erithacus Software), as described previously ([Ferguson et al., 2016]).
FIGURE 4 Progress curves for (A), chymotrypsin-catalysed hydrolysis of Succinyl-Ala-Ala-Pro-Phe-NHMec, in the presence of varying concentrations of NAP849. (B), NE-catalysed hydrolysis of MeO-succinyl-Ala-Ala-Pro-Val-NHMec, in the presence of varying concentrations of NAP800. (C) Trypsin-catalysed of Z-Gly-Gly-Arg-NHMec, in the presence of NAP830. (D) Plasmin-catalysed hydrolysis of Boc-Val-Leu-Lys-NHMec, in the presence of varying concentrations of NAP962. Assays were carried out in PBS, pH 7.4, at 37°C, in the presence of a range of inhibitor concentrations (0.25–50 μM) and a fixed concentration (50 μM) of the appropriate substrate for each protease. […]
Protease inactivation by each of the compounds under study was evaluated using a fluorogenic enzyme assays. […]

T1 sequence (P00761 9-231): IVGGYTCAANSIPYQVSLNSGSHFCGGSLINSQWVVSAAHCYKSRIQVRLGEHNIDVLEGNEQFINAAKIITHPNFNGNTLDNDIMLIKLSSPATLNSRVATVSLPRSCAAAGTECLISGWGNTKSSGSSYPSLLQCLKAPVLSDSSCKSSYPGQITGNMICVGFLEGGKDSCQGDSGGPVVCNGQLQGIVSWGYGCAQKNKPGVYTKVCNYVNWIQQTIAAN

k 3 (first-order rate constant, PBS pH 7.4, 37°C, mean ± SD (n=2)): 0.6 (+ 0.2) min^−1 | effectiveness as irreversible inhibitor relative to the analogous lysine diphenyl phosphonate QUBTL2 (fold greater than QUBTL2): two-fold | k 3 / K i (second-order rate constant of inactivation, PBS pH 7.4, 37°C, mean ± SD (n=2)): 45700 M⁻¹ s⁻¹
SMILES: NCCCCN(CC(=O)NCC(=O)NCC(=O)NCCCOCCOCCOCCCNC(=O)CCCCC1SCC2NC(=O)NC21)C(=O)ON1C(=O)CCC1=O (stereo not drawn) [NAP830, Succinimidoyl-CO-NLys-Gly-Gly-PEG-Biotin]
